The source made the active and inactive calls. No cut-off for these calls is given here.
Key:
[1] = test system: Escherichia coli; assay: Antibacterial activity against Escherichia coli KCTC 1682 assessed as reduction in bacterial growth incubated for 24 hrs by CLSI based broth dilution method; format: functional; conditions: read-out: MIC100
[2] = test system: Pseudomonas aeruginosa; assay: Antibacterial activity against Pseudomonas aeruginosa KCTC 1637 assessed as reduction in bacterial growth incubated for 24 hrs by CLSI based broth dilution method; format: functional; conditions: read-out: MIC100
[3] = Antibacterial activity against multidrug-resistant Pseudomonas aeruginosa CCARM 2109 assessed as reduction in bacterial growth incubated for 24 hrs by CLSI based broth dilution method; format: functional; conditions: read-out: MIC100
[4] = Hemolytic activity in sheep RBC assessed as reduction in hemoglobin at 64 uM incubated for 1 hr; format: ADME, cell-based, Ovis aries, Erythrocyte; conditions: sheep red blood cells (erythrocytes), read-out: Activity
[5] = Cytotoxicity against mouse RAW264.7 cells assessed as reduction in cell viability at 20 uM incubated for 24 hrs by MTT assay; format: cell-based; conditions: read-out: INH
[6] = test system: Candida albicans; assay: Antifungal activity against Candida albicans KCTC 7121 assessed as reduction in fungal growth incubated for 24 hrs by CLSI based broth dilution method; format: functional; conditions: read-out: MIC100
[7] = Therapeutic index, ratio of HC10 for sheep RBC to geometric mean MIC for gram negative bacteria; format: toxicity; conditions: sheep red blood cells, read-out: TI
[8] = Antibacterial activity against multidrug-resistant Pseudomonas aeruginosa CCARM 2095 assessed as reduction in bacterial growth incubated for 24 hrs by CLSI based broth dilution method; format: functional; conditions: read-out: MIC100
[9] = test system: Bacteria; assay: Antibacterial activity against Gram negative bacteria assessed as reduction in bacterial growth incubated for 24 hrs by CLSI based broth dilution method; format: functional; conditions: read-out: MIC100
[10] = Retention time of the compound by RP-HPLC method; format: physicochemical
[11] = test system: Saccharomyces cerevisiae; assay: Antifungal activity against yeast assessed as reduction in fungal growth incubated for 24 hrs by CLSI based broth dilution method; format: functional; conditions: read-out: MIC100
[12] = Cytotoxicity against mouse NIH/3T3 cells assessed as reduction in cell viability at 10 uM incubated for 24 hrs by MTT assay; format: cell-based, NIH3T3; conditions: read-out: INH
[13] = test system: Bacteria; assay: Antibacterial activity against Gram positive bacteria assessed as reduction in bacterial growth incubated for 24 hrs by CLSI based broth dilution method; format: functional; conditions: read-out: MIC100
[14] = test system: Erythrocyte; assay: Hemolytic activity in sheep RBC assessed as reduction in hemoglobin at 256 uM incubated for 1 hr; format: ADME, cell-based, Ovis aries
[15] = Cytotoxicity against mouse NIH/3T3 cells assessed as reduction in cell viability at 20 uM incubated for 24 hrs by MTT assay; format: cell-based, NIH3T3; conditions: NIH/3T3 cells, read-out: INH
[16] = test system: Staphylococcus epidermidis; assay: Antibacterial activity against Staphylococcus epidermidis KCTC 1917 assessed as reduction in bacterial growth incubated for 24 hrs by CLSI based broth dilution method; format: functional; conditions: read-out: MIC100
[17] = test system: Staphylococcus aureus; assay: Antibacterial activity against Staphylococcus aureus KCTC 1621 assessed as reduction in bacterial growth incubated for 24 hrs by CLSI based broth dilution method; format: functional; conditions: read-out: MIC100
[18] = test system: Bacillus subtilis; assay: Antibacterial activity against Bacillus subtilis KCTC 3068 assessed as reduction in bacterial growth incubated for 24 hrs by CLSI based broth dilution method; format: functional; conditions: read-out: MIC100
[19] = test system: Staphylococcus aureus; assay: Antibacterial activity against methicillin-resistant Staphylococcus aureus CCARM 3090 assessed as reduction in bacterial growth incubated for 24 hrs by CLSI based broth dilution method; format: functional; conditions: read-out: MIC100
[20] = test system: Enterococcus faecium; assay: Antibacterial activity against vancomycin-resistant Enterococcus faecium ATCC 51559 assessed as reduction in bacterial growth incubated for 24 hrs by CLSI based broth dilution method; format: functional; conditions: read-out: MIC100
[21] = Cytotoxicity against mouse RAW264.7 cells assessed as reduction in cell viability at 10 uM incubated for 24 hrs by MTT assay; format: cell-based; conditions: read-out: INH
[22] = test system: Erythrocyte; assay: Hemolytic activity in sheep RBC assessed as reduction in hemoglobin incubated for 1 hr; format: ADME, cell-based, Ovis aries
[23] = Therapeutic index, ratio of HC10 for sheep RBC to geometric mean MIC for yeast; format: toxicity; conditions: sheep red blood cells, read-out: TI
[24] = test system: Staphylococcus aureus; assay: Antibacterial activity against methicillin-resistant Staphylococcus aureus CCARM 3095 assessed as reduction in bacterial growth incubated for 24 hrs by CLSI based broth dilution method; format: functional; conditions: read-out: MIC100
[25] = test system: Candida albicans; assay: Antifungal activity against Candida albicans KCTC 7965 assessed as reduction in fungal growth incubated for 24 hrs by CLSI based broth dilution method; format: functional; conditions: read-out: MIC100
[26] = test system: Salmonella typhimurium; assay: Antibacterial activity against Salmonella typhimurium KCTC 1926 assessed as reduction in bacterial growth incubated for 24 hrs by CLSI based broth dilution method; format: functional, Salmonella enterica subsp. enterica serovar Typhimurium; conditions: Salmonella enterica, read-out: MIC100
[27] = test system: Staphylococcus aureus; assay: Antibacterial activity against methicillin-resistant Staphylococcus aureus CCARM 3089 assessed as reduction in bacterial growth incubated for 24 hrs by CLSI based broth dilution method; format: functional; conditions: read-out: MIC100
[28] = Therapeutic index, ratio of HC10 for sheep RBC to geometric mean MIC for gram positive bacteria; format: toxicity; conditions: sheep red blood cells, read-out: TI
[29] = test system: Lipopolysaccharide (LPS); assay: Inhibition of Escherichia coli O111:B4 LPS aggregation assessed as increase in FITC-LPS dissociation at 2 uM by spectrofluorometry
[30] = test system: RAW264.7; assay: Antiinflammatory activity in mouse RAW264.7 cells assessed as suppression of LPS binding by measuring LPS-FITC aggregation at 10 uM pretreated with LPS for 1 hr followed by compound addition and measured after 30 mins by flowcytometry analysis (reference value: 67.93 %); format: functional; conditions: 0.5 h
[31] = test system: RAW264.7; assay: Antiinflammatory activity against mouse RAW264.7 cells assessed as reduction in LPS-induced nitrite level at 5 uM incubated for 24 hrs by Griess reagent based assay relative to control; format: functional
[32] = test system: RAW264.7; assay: Antiinflammatory activity in mouse RAW264.7 cells assessed as neutralization of LPS binding by measuring LPS-FITC aggregation at 10 uM pretreated with LPS for 1 hr followed by compound addition and measured after 1 hr by flowcytometry analysis (reference value: 48.12 %); format: functional
[33] = test system: RAW264.7; assay: Antiinflammatory activity against mouse RAW264.7 cells assessed as reduction in LPS-induced TNFalpha level at 10 uM incubated for 24 hrs by […] relative to control; format: functional

Row | Substance | MIC [1] | MIC [2] | MIC [3] | cytotoxicity at 24 h, 20 µM [5] | MIC [6] | selectivity ratio [7] | MIC [8] | MIC [9] | Retention_time [10] | MIC [11] | MIC [13] | Activity [14] | cytotoxicity at 24 h, 20 µM [15] | MIC [16] | MIC [17] | MIC [18] | MIC [19] | MIC [20] | HC10 [22] | selectivity ratio [23] | further results
1 | H-FWQLVPLAIKIYRAWKRR-NH2 | 16 µM | 16 µM | 32 µM | < 10% | 16 µM | 0.1 | 32 µM | 20.8 µM | 29 min | 16 µM | 20.5 µM | Non-Toxic | < 10% | 16 µM | 8 µM | 8 µM | 16 µM | 32 µM | 1.3 µM | 0.1 | hemolysis at 1 h, 64 µM [4]: 100%; cytotoxicity at 24 h, 10 µM [12]: 40%; cytotoxicity at 24 h, 10 µM [21]: 40%; MIC [24]: 32 µM; MIC [25]: 16 µM; MIC [26]: 8 µM; MIC [27]: 32 µM; selectivity ratio [28]: 0.1
2 | H-KRFWQLVPLAIKIYRAWKRR-OH | 8 µM | 16 µM | 16 µM | < 10% | 16 µM | 0.4 | 16 µM | 12 µM | 26.8 min | 12 µM | 11.4 µM | Non-Toxic | < 10% | 8 µM | 8 µM | 8 µM | 16 µM | 16 µM | 5.1 µM | 0.4 | hemolysis at 1 h, 64 µM [4]: 40%; cytotoxicity at 24 h, 10 µM [12]: 40%; cytotoxicity at 24 h, 10 µM [21]: 40%; MIC [24]: 8 µM; MIC [25]: 8 µM; MIC [26]: 4 µM; MIC [27]: 16 µM; selectivity ratio [28]: 0.4
3 | H-LAIKIYRAWKRR-NH2 | 16 µM | 4 µM | 16 µM | < 10% | 16 µM | 33.7 | 32 µM | 15.2 µM | 16.4 min | 12 µM | 21.1 µM | Non-Toxic | < 10% | 4 µM | 8 µM | 8 µM | 32 µM | 32 µM | > 256 µM | 42.7 | inhibition [29]: Active; Activity [30]: 59.24%; inhibition at 5 µM [31]: < 10%; Activity [32]: 42.35%; inhibition at 10 µM [33]: < 10%; MIC [24]: 32 µM; MIC [25]: 8 µM; MIC [26]: 8 µM; MIC [27]: 32 µM; selectivity ratio [28]: 243

Source: ChEMBL document CHEMBL4765389, “Antimicrobial and anti-inflammatory activities of short dodecapeptides derived from duck cathelicidin: Plausible mechanism of bactericidal action and endotoxin neutralization” (Eur J Med Chem, 2020)
